US20260137698A1, “CYCLIN-DEPENDENT KINASE 7 INHIBITORS” (JOINT STOCK COMPANY «BIOCAD», priority 2022, published 2026)
pIC50: −log10 of the molar value.

Test system: MDA-MB-468 (triple negative breast cancer)
Experiment: BrdU incorporation into DNA in MDA-MB-468 cells
Format: cell-based
Conditions: Homo sapiens, mean of multiple measurements
Excerpt: Upon adding bromodeoxyuridine (BrdU) to dividing cells, Thymidine is replaced by its analogue, BrdU, and BrdU is incorporated into DNA. Thus, BrdU incorporated into DNA characterizes the intensity of DNA replication and ongoing S phase of the cell cycle. Reduced incorporation of bromodeoxyuridine into DNA under the action of the compounds characterizes a slowdown in the cell cycle and DNA replication.
The ability of the CDK7 inhibitors according to the present invention to inhibit the incorporation of BrdU into DNA was evaluated in a cell test on continuous cell cultures: MDA-MB-468 (triple negative breast cancer, ATCC® HTB-132™) using a BrdU detection kit (Roche, order no. 11 669 915 001)). The cells were grown in DMEM medium (PanEco, order no. C330π). The basal growth medium was enriched with L-glutamine at a concentration of 2 mM (PanEco, order no. Φ032) and 10% fetal bovine serum (Gibco, order no. 16140-071). MDA-MB-468 adherent cells were detached from plastic with a solution of trypsin-EDTA (PanEco, order no. Π039π), the solution was then inactivated by a DMEM complete medium, centrifuged at 1000 RPM (Eppendorf, 5804 R), a suspension of cells was prepared in a DMEM complete medium, introduced into 96-well culture plates (Corning Inc, order no. 3599) at 4×10^3 cells in 75 μl of medium per well. Test compounds were dissolved in DMSO and diluted with a DMEM complete medium to a final concentration ranging from 0.5 μM to 2 μM. Serum-free growth medium was removed from plate wells, and solutions comprising diluted compounds in the volume of 100 μl in basal growth medium were added. Candidates were introduced into the plate wells with cells in triplicates (the final concentration of DMSO was no more than 1%) and incubated at 37° C. in an incubator with 5% CO2 for 24 hours. Following incubation, 10 μl of solution of BrdU at a concentration of 10 μM was added to wells, the contents of the plates were agitated on an orbital shaker (Biosan, Latvia), and incubated for additional 72 hours at 37° C. in an incubator with 5% CO2. Incorporated BrdU was then detected according to the guidelines of the kit manufacturer. […] 100 μl of substrate solution was introduced into each analyzed well and incubated for 3 minutes at room temperature (+15-25° C.) on an orbital shaker (Biosan, Latvia) and for another 5-7 minutes without stirring.
The amount of incorporated BrdU was detected on the Infinite M200Pro microplate spectrophotometer (Tecan Group Ltd, Switzerland) by measuring the luminescent signal. IC50 value was calculated using the Magellan software (Tecan Group Ltd, Switzerland) by approximating experimental points by four-parameter model with the optimization by Levenberg-Marquardt.

| pIC50 | Structure (SMILES) |
| --- | --- |
| 7.62 | CC1(C)CC[C@H](Nc2ncc(C(F)(F)F)c(-c3c[nH]c4c3CCCN(C3CC3)C4=O)n2)CN1 [CDK7_1225, 7-cyclopropyl-3-(2-{[(3S)-6,6-dimethylpiperidin-3-yl]amino}-5-(trifluoromethyl)py-rimidin-4-yl)-1H,4H,5H,6H,7H, 8H-pyrrolo[2,3-c]azepin-8-one] |
| 7.55 | CC(C)N1CCCc2c(-c3nc(N[C@H]4CCC(C)(C)NC4)ncc3C(F)(F)F)c[nH]c2C1=O [CDK7_1229, 3-(2-{[(3S)-6,6-dimethylpiperidin-3-yl]amino}-5-(trifluoromethyl)py-rimidin-4-yl)-7-(propan-2-yl)-1H,4H,5H,6H,7H, 8H-pyrrolo[2,3-c]azepin-8-one] |
| 7.85 | CN1CCCc2c(-c3nc(N[C@H]4CCC(C)(C)NC4)ncc3C(F)(F)F)c[nH]c2C1=O [CDK7_1187, 3-(2-{[(3S)-6,6-dimethylpiperidin-3-yl]amino}-5-(trifluoromethyl)py-rimidin-4-yl)-7-methyl-1H,4H,5H,6H,7H, 8H-pyrrolo[2,3-c]azepin-8-one] |

| Structure (SMILES) | pIC50 |
| --- | --- |
| O=C1c2[nH]cc(-c3nc(N[C@H]4CCC5(CC5)NC4)ncc3C(F)(F)F)c2CCCN1C1CC1 [CDK7_1276, 3-(2-{[(6S)-4-azaspiro[2.5]octan-6-yl]amino}-5-(trifluoromethyl)py-rimidin-4-yl)-7-cyclopropyl-1H,4H,5H,6H,7H, 8H-pyrrolo[2,3-c]azepin-8-one] | 8.70 |
